Data set [1] relates to sumatriptan-primed rats. The data set can be described thus: stress induced allodynia in a rat model of medication overuse headache (MOH). It counts as in vivo. The note with it: bright light stress, oral 33.3 mg/ml, 3 ml/kg, measured day 21 over 5 h. The method, then: The effects of compounds on stress induced allodynia in a rat model of medication overuse headache (MOH) The effects of compounds on stress induced cephalic and extracephalic allodynia in sumatriptan-primed rats was tested.
Sprague Dawley rats were implanted with osmotic minipumps (model 2001; Alzet, Cupertino, Calif., USA) providing continuous infusion of sumatriptan (0.6 mg/kg/day, s.c) or vehicle (saline, 0.9% NaCl) for 7 days. Mechanical facial (FIG. 1; A) and hindpaw (FIG. 1; C) allodynia was measured during a 19 day time course.
On day 20, when mechanical thresholds are at basal levels, all rats received either 4-{5-[3-(4-Fluorophenyl)-3H-imidazo[4,5-c]pyridin-2-yl]pyridin-2-yl}morpholine (compound 4) or vehicle orally (33.3 mg/ml, Dose 3 ml/kg) and then they were exposed to bright lights for 1 h (bright light stress; BLS). Rats received a second dose of the assigned treatment in the afternoon.
On day 21 all rats received a third dose of the assigned treatment and then they were again exposed to BLS for 1 h. Mechanical facial (FIG. 1; B) and hindpaw (FIG. 1; D) allodynia was measured over a 5 h time course.
Sumatriptan-treated, but not saline-treated, rats developed generalized allodynia during minipump infusion measured in the periorbital and hindpaw regions (FIG. 1; A, C; day 6). Mechanical thresholds returned to baseline on days 10 and 19. […]

In the next data set the target is T1, human VAP-1 (SSAO) (Homo sapiens, UniProt Q16853).
T1 construct: made in house
T1 sequence (Q16853 29-763 limits assumed): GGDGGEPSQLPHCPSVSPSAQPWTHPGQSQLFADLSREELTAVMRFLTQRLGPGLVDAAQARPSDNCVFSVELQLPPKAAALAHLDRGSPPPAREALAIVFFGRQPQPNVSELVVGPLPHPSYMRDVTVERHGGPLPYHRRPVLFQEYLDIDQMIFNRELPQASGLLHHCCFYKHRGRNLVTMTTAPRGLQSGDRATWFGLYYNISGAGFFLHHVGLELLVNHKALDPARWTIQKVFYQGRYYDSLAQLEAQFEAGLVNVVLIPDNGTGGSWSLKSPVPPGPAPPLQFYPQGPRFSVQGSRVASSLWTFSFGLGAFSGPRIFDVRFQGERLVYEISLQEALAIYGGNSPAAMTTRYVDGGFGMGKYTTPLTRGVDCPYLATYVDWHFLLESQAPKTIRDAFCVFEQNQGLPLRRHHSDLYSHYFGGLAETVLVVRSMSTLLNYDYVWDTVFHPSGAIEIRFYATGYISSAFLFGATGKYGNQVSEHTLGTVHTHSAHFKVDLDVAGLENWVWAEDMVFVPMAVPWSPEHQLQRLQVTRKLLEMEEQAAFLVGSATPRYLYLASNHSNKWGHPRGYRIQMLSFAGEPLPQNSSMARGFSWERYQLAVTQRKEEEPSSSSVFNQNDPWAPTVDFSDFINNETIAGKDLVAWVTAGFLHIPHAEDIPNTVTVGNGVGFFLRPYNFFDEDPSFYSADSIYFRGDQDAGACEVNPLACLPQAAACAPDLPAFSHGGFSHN
The data set can be described thus: VAP-1 Inhibition Assay. It counts as biochemical. To be noted: purified recombinantly expressed human VAP-1 (SSAO), benzylamine substrate, room temperature. The procedure: This assay is performed at room temperature with purified recombinantly expressed human VAP-1 (SSAO). Enzyme was prepared essentially as described in Ohman et al. (Protein Expression and Purification 46 (2006) 321-331). The enzyme activity is assayed with benzylamine as substrate by measuring either benzaldehyde production, using 14C-labeled substrate, or by utilizing the production of hydrogen peroxide in a horseradish peroxidise (HRP) coupled reaction. Briefly, test compounds are dissolved in dimethyl sulfoxide (DMSO) to a concentration of 10 mM. Dose-response measurements are assayed by either creating 1:10 serial dilutions in DMSO to produce a 7 point curve or by making 1:3 serial dilutions in DMSO to produce 11 point curves. The top concentrations are adjusted depending on the potency of the compounds and subsequent dilution in reaction buffer yielded a final DMSO concentration ≤2%.
Hydrogen peroxide detection: In a horseradish peroxidise (HRP) coupled reaction, hydrogen peroxide oxidation of 10-acetyl-3,7-dihydroxyphenoxazine produces resorufin, which is a highly fluorescent compound (Zhout and Panchuk-Voloshina. Analytical Biochemistry 253 (1997) 169-174; AmplexR Red Hydrogen Peroxide/peroxidise Assay kit, Invitrogen A22188). Enzyme and compounds in 50 mM sodium phosphate, pH 7.4 are set to pre-incubate in flat-bottomed microtiter plates for approximately 15 minutes before initiating the reaction by addition of a mixture of HRP, benzylamine and Amplex reagent. Benzylamine concentration is fixed at a concentration corresponding to the Michaelis constant, determined using standard procedures. Fluorescence intensity is then measured at several time points during 1-2 hours, exciting at 544 nm and reading the emission at 590 nm. For the human SSAO assay final concentrations of the reagents in the assay wells are: SSAO enzyme 1 mg/ml, benzylamine 100 μM, Amplex reagent 20 μM, HRP 0.1 U/mL and varying concentrations of test compound. The inhibition is measured as % decrease of the signal compared to a control without inhibitor (only diluted DMSO). The background signal from a sample containing no SSAO enzyme is subtracted from all data points. Data is fitted to a four parameter logistic model and IC50 values are calculated, for example by using the GraphPad Prism 4 or XLfit 4 programs.

Data set [2] can be described thus: CNS penetration (brain:plasma ratio). The class given is in vivo. To be noted: rat, whole brain homogenate and plasma, intravenous; total brain:plasma ratio adjusted for plasma protein binding and brain tissue binding; read-out: unbound (free) brain:plasma ratio. An excerpt: Central nervous system (CNS) penetration of compounds of the invention can be determined by for example, intravenous dosing in a rat and subsequent quantitative LCMS analysis of the drug concentration in plasma and whole brain homogenate. The total brain:plasma ratio can then be calculated. This total ratio can be adjusted for plasma protein binding (PPB) and brain tissue binding (BTB) determined by standard means to give an unbound (free) brain:plasma ratio. For example, Compound 4 of the invention has an unbound (free) brain:plasma ratio of 0.72, indicating good CNS penetration of the compound.

In the next data set the target is T2, VAP-1 (Homo sapiens, UniProt Q16853).
T2 sequence (Q16853 1-763): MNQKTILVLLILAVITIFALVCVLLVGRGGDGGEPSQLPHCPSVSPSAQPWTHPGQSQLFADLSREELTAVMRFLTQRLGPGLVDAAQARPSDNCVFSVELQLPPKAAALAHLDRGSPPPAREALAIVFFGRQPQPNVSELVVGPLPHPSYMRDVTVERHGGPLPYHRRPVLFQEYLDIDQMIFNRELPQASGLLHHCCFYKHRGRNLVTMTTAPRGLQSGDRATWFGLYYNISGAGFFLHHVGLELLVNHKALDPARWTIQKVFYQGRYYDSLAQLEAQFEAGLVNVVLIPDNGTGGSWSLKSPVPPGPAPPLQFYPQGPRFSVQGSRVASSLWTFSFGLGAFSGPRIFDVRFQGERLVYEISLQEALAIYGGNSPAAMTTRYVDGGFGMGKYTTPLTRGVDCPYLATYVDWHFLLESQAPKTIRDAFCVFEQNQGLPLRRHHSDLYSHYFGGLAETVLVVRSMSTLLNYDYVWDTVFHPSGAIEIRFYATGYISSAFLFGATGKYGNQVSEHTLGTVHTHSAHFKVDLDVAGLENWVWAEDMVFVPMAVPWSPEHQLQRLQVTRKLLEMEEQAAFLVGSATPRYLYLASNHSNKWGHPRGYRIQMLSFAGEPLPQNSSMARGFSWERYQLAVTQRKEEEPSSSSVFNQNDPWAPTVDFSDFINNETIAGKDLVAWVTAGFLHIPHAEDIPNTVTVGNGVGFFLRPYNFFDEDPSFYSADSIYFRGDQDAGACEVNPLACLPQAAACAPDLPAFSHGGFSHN
The note with it: known; cited from earlier work.

The conditions of data set [3]: phase IIb chronic migraine study; cited from earlier work.
Data set [4] concerns sumatriptan-primed rats. The note with it: Kopruszinski et al, Cephalalgia, 2017; cited from earlier work.

By IC50 is commonly meant the concentration needed to halve the response being measured.

With `Fc1ccc(-n2c(-c3ccc(N4CCOCC4)nc3)nc3ccncc32)cc1` [Compound 4, 4-{5-[3-(4-Fluorophenyl)-3H-imidazo[4,5-c]pyridin-2-yl]pyridin-2-yl}morpholine], in the data set on sumatriptan-primed rats [1], the stress-induced hindpaw allodynia entry was “significantly reduced” and the stress-induced periorbital allodynia result is “significantly reduced”. For the same molecule, the IC50 at human VAP-1 (SSAO) is 13 nM. In addition, the unbound brain:plasma ratio (Kp,uu) in data set [2] came out at 0.72. With `CS(=O)(=O)N1CCN(c2ccc(-c3nc4ccncc4n3-c3ccc(F)cc3)cn2)CC1` [Compound 3, 1-{5-[3-(4-Fluorophenyl)-3H-imidazo[4,5-c]pyridin-2-yl]pyridin-2-yl}-4-methanesulfonylpiperazine], the IC50 at human VAP-1 (SSAO) was found to be 4 nM. The same measure, in the same setting: the result for `CC(=O)N1CCN(c2ccc(-c3nc4ccncc4n3-c3ccc(F)cc3)cn2)CC1` [Compound 2, 1-(4-{5-[3-(4-Fluorophenyl)-3H-imidazo[4,5-c]pyridin-2-yl]pyridin-2-yl}piperazin-1-yl)ethan-1-one] reads 31 nM; that for `C=C(CNN)c1ccccc1` [LJP1207, reference compound], 34 nM. Turning to `NC(CO)C(=O)NNCc1ccc(O)c(O)c1O` (stereo not drawn) [benserazide, Benserazide], the “inhibition of VAP-1” value at VAP-1 is given as “very good inhibitors of VAP-1”. For `C[C@@](Cc1ccc(O)c(O)c1)(NN)C(=O)O` [(S)-Carbidopa, reference compound], the IC50 on human VAP-1 (SSAO) is 142 nM. The “inhibition of VAP-1” value at VAP-1 is listed as “very good inhibitors of VAP-1”.

B1: TEV48125: a fully humanised CGRP antibody (antibody, chains of the INN, looked up, V domains shown)
VH: EVQLVESGGGLVQPGGSLRLSCAASGFTFSNYWISWVRQAPGKGLEWVAEIRSESDASATHYAEAVKGRFTISRDNAKNSLYLQMNSLRAEDTAVYYCLAYFDYGLAIQNYWGQGTLVTVSS
VL: EIVLTQSPATLSLSPGERATLSCKASKRVTTYVSWYQQKPGQAPRLLIYGASNRYLGIPARFSGSGSGTDFTLTISSLEPEDFAVYYCSQSYNYPYTFGQGTKLEIK
Take B1: the “efficacy in human clinical trials” value in data set [3] is reported as “efficacious”. Further, in the data set on sumatriptan-primed rats [4], the “efficacy in the MOH model” value is “efficacious”.

Values taken from patent US20200147059A1, “NEW THERAPEUTIC USES OF ENZYME INHIBITORS” (Proximagen, LLC, priority 2017, published 2020).
